Data taken from PMC4535329 (Bioorganic & medicinal chemistry letters, 2015).
In brackets after ≈: the same amount, converted by molar mass.

Assays:
[1] = Solubility; type: physicochemical
[2] = molecular target: mGlu3 (Homo sapiens, UniProt Q14832); assay: mGlu selectivity: mGlu3 antagonist activity; type: cell-based
[3] = molecular target: mGlu1 (Homo sapiens, UniProt Q13255); assay: mGlu selectivity; type: cell-based
[4] = test system: amphetamine-induced hyperlocomotion (AHL); assay: Reversal of amphetamine-induced hyperlocomotion; type: in vivo, male, Sprague Dawley rats
[5] = test system: Na channel; assay: Cardiovascular safety pharmacology: Na channel; type: cell-based; settings: read-out: Na channel IC50
[6] = test system: Ca channel; assay: Cardiovascular safety pharmacology: Ca channel; type: cell-based; settings: read-out: Ca channel IC50
[7] = molecular target: mGlu6 (Homo sapiens, UniProt O15303); assay: mGlu selectivity; type: cell-based
[8] = molecular target: mGlu7 (Homo sapiens, UniProt Q14831); assay: mGlu selectivity; type: cell-based
[9] = molecular target: mGlu2 (Homo sapiens, UniProt Q14416); assay: mGlu selectivity; type: cell-based
Sequence of mGlu2 (Q14416 19-872): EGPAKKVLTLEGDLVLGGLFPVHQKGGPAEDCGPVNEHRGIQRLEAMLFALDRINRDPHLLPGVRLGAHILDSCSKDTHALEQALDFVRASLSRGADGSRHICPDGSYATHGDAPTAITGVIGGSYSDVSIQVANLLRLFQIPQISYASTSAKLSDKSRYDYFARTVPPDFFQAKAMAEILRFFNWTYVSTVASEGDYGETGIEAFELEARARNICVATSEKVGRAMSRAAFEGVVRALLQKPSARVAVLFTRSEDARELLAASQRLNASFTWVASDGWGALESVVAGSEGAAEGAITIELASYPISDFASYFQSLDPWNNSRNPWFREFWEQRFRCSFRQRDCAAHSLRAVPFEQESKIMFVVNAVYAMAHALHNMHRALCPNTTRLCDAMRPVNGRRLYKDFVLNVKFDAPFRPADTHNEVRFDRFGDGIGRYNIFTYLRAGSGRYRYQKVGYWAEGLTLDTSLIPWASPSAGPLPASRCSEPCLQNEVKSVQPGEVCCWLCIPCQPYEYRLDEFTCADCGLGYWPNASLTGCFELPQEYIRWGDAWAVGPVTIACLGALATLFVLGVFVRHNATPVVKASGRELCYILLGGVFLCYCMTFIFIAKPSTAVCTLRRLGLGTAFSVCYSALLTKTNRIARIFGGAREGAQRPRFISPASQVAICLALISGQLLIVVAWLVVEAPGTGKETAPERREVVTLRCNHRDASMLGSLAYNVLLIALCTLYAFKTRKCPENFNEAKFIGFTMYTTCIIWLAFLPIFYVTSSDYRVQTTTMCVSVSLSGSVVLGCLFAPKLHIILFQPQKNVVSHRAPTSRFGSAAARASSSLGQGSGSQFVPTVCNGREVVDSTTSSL

[10] = molecular target: mGlu8 (Homo sapiens, UniProt O00222); assay: mGlu selectivity; type: cell-based
Sequence of mGlu8 (O00222 34-908): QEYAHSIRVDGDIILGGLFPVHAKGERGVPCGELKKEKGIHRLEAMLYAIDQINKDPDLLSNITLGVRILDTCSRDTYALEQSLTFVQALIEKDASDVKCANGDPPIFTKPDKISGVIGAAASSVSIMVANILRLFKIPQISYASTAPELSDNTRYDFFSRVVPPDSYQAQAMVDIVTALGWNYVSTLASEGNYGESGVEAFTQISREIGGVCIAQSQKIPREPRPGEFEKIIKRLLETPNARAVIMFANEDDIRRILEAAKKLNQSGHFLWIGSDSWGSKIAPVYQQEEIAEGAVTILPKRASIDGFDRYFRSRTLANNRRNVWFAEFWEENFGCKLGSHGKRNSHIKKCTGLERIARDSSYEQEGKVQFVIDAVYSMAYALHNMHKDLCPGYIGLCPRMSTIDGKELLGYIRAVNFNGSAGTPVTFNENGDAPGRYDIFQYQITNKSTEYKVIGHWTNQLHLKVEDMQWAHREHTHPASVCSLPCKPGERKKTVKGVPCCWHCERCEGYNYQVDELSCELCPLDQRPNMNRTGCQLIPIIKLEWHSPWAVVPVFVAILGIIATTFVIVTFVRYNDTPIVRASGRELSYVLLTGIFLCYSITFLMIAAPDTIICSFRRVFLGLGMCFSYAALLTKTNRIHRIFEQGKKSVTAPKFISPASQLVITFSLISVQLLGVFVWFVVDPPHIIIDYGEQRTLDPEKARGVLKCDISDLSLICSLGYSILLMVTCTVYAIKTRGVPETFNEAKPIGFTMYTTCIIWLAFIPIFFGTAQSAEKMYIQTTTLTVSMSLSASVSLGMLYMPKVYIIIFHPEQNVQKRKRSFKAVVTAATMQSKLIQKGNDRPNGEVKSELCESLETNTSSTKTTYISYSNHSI

[11] = molecular target: mGlu4 (Homo sapiens, UniProt Q14833); assay: mGlu selectivity; type: cell-based
[12] = molecular target: human mGlu5 (Homo sapiens, UniProt P41594); assay: Calcium mobilization assay using HEK293 expressing human mGlu5; type: cell-based
Sequence of human mGlu5 (P41594 21-1212): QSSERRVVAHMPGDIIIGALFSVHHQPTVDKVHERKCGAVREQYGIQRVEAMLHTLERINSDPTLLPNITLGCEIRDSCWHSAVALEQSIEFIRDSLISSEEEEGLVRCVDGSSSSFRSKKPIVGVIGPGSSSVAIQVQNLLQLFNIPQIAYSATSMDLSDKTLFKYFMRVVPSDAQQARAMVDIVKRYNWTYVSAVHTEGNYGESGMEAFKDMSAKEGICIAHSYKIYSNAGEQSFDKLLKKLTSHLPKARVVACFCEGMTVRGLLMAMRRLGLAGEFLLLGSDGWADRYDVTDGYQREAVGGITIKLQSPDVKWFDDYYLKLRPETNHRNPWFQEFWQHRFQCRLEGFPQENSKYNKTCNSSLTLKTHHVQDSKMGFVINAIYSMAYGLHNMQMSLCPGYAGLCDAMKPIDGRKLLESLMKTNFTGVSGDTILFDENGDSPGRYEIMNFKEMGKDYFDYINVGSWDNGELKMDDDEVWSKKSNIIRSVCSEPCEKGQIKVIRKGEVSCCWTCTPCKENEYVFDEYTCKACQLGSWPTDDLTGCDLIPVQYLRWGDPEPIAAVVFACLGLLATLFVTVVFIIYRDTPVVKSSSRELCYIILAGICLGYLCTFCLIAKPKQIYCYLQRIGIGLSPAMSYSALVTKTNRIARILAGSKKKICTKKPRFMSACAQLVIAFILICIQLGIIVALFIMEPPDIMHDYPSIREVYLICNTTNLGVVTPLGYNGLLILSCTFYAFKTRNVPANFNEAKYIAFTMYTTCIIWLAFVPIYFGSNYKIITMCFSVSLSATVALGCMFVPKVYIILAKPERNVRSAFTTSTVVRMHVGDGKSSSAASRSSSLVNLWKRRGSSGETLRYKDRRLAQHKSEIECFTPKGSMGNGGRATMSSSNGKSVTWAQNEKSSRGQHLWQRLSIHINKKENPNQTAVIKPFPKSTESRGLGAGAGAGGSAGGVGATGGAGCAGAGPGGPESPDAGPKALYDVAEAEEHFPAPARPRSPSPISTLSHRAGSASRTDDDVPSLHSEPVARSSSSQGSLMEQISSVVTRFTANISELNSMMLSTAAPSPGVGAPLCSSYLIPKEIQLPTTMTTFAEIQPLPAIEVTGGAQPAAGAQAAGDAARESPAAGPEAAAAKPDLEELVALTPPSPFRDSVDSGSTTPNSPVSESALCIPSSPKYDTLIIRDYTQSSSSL

[13] = Predicted hepatic clearance; type: in vitro ADME; settings: rat
[14] = test system: mGlu5; assay: Leftward fold-shift of a full glutamate concentration-response curve; type: cell-based; settings: human and rat receptors, equal magnitude
[15] = Predicted hepatic clearance; type: in vitro ADME; settings: human

Sequence of mGlu3 (Q14832 23-879): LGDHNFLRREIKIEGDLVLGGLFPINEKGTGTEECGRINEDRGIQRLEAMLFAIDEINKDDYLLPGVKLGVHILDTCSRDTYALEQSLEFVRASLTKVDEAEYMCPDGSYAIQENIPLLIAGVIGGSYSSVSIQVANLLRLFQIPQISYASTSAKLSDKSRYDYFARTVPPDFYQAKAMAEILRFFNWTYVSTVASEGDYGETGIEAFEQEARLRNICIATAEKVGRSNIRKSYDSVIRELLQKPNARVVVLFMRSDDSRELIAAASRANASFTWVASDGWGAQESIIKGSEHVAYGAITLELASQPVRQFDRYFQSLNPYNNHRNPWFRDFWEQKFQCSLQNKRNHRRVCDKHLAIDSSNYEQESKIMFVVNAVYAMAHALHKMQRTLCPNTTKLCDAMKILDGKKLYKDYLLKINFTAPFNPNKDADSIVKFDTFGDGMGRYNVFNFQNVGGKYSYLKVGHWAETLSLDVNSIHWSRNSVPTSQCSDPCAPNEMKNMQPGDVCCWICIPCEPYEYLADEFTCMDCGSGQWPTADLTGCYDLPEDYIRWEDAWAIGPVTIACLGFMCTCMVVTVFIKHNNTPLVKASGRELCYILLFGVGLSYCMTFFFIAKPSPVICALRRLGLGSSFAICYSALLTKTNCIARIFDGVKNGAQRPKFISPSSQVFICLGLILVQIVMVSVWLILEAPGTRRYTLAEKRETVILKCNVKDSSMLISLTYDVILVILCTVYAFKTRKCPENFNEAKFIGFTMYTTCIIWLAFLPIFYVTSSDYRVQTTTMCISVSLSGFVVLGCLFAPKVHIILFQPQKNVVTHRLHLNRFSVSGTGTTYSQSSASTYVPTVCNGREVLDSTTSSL
Sequence of mGlu1 (Q13255 19-1194): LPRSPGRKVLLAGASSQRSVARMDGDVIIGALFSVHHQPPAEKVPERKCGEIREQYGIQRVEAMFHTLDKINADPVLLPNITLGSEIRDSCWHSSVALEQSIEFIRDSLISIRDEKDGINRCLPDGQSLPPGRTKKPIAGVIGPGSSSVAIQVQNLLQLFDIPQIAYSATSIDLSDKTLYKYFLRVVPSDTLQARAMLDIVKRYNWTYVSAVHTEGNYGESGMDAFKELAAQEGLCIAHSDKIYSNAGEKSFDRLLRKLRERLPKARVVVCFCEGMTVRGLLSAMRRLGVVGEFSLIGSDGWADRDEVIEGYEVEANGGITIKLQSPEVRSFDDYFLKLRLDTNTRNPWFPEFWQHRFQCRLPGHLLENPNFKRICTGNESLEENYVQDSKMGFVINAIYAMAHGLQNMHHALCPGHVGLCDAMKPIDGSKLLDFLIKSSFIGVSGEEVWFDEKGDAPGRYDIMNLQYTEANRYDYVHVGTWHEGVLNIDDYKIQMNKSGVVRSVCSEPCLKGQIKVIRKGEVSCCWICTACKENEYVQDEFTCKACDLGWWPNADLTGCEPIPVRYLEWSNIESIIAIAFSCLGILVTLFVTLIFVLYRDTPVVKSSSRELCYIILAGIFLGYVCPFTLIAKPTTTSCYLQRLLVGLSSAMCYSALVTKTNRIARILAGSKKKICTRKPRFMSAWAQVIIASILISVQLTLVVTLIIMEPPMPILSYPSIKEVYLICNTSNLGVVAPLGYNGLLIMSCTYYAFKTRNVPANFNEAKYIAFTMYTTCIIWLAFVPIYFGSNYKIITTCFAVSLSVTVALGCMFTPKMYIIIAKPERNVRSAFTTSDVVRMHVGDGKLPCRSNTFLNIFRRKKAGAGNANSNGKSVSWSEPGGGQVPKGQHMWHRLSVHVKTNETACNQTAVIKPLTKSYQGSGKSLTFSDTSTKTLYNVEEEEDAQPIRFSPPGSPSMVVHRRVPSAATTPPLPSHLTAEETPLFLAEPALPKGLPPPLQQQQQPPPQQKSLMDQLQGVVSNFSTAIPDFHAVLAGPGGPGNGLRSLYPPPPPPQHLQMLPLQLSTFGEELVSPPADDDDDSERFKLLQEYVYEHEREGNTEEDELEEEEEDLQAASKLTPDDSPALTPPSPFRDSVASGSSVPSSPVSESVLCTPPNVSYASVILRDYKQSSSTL

In the case of O=C(c1n[nH]c2ccccc12)N1CCc2nc(COc3ccccc3)oc2C1 [11e], the “solubility (in words)” value [1] is reported as “poor solubility”.

For O=C(c1c[nH]c2ccccc12)N1CCc2nc(COc3ccccc3)oc2C1 [11c], the “solubility (in words)” value [1] was “poor solubility”.

In the case of O=C(c1ccc(F)cc1)N1CCc2nc(COc3cccc(F)c3)oc2C1 [4b], the IC50 [2] is reported as 410 nM, the “mGlu3 Glu min” value ([2]; % Glu min) is reported as 8% and the “activity versus mGlu1” value [3] is reported as > 10 µM. For the same compound, the “minimum effective dose in AHL” value ([4]; rat, po) was 30 mpk, the IC50 [5] was > 10 µM and the solubility ([1]; FaSSIF) was 10 µg/mL (≈ 27 µM). For the same compound, the solubility ([1]; SGF) was 10 µg/mL (≈ 27 µM), the “solubility, fold lower than 1” value ([1]; relative to 1) was 3 × and the IC50 [6] was > 10 µM. The “activity versus mGlu6” value [7] was > 10 µM, the “activity versus mGlu7” value [8] was > 10 µM and the “activity versus mGlu2” value [9] was > 10 µM. The “activity versus mGlu8” value [10] was > 10 µM and the “activity versus mGlu4” value [11] was > 10 µM.

For O=C(c1cc2ccccc2[nH]1)N1CCc2nc(COc3ccccc3)oc2C1 [11a], the “mGlu5 PAM activity (in words)” value [12] was “inactive”.

For O=C(c1n[nH]c2ncccc12)N1CCc2nc(COc3ccccc3)oc2C1 [11h], the “predicted hepatic clearance CLhep” value [13] was 36 mL/min/kg, the “MED in AHL, fold higher than for 1” value ([4]; relative to 1) was 3 fold and the fold-shift [14] was 7.3–9.3 x. The “predicted hepatic clearance CLhep” value [15] was 9.1 mL/min/kg, the ago-PAM activity [12] was “modest ago-PAM activity” and the ligand efficiency [12] was 0.31.
